This note sets out measurements from publication PMC11915509, “Small molecule inhibitors of hnRNPA2B1–RNA interactions reveal a predictable sorting of RNA subsets into extracellular vesicles” (Nucleic Acids Research, 2025).

Experiment [1] concerns the target T1, hnRNPA2B1-RNA 114 probe interaction (Homo sapiens, UniProt P22626).
T1 construct: purified a human full-length, GST-tagged protein expressed in Escherichia coli cells; made in house; host or cells: E. coli BL21 (DE3)
In words: AlphaScreen with RNA 114 probe and compounds. The note with it: 250 nM of compounds, 14 nM RNA 114 probe. Type of experiment: binding. For orientation: Bead proximity is the source of the signal in Alpha formats.
Method: The assays were performed in OptiPlate-384-well plates (PerkinElmer, 6007299) in 20 μl final volume. The ligands were diluted in AlphaBuffer [25 mM HEPES, pH 7.4, 100 mM NaCl, 0.01% bovine serum albumin (BSA)] and tested using AlphaScreen GST Detection Kit (PerkinElmer, 6760603C). For the assay optimization, different concentrations of the RNA probes (0–100 nM) were incubated with different concentrations of GST-hnRNPA2B1 (0–60 nM) in the presence of streptavidin Donor beads and anti-GST-Acceptor beads (PerkinElmer) (20 μg/ml final concentration). For the reactions, 4 μl of the RNA probes were first added to the plate, then 16 μl of a mix containing all the other components was added, and the plate was incubated at room temperature for 1 h in the dark.

Experiment [2] has as its system EV miR-221 from NSC34 cells. Description: ddPCR of miR-221-3p in NSC34-derived EV-RNA. Type of experiment: cell-based, mouse. The note with it: NSC34-derived EVs, 6 h treatment. As to the method: EVs were isolated from HEK293T, NSC34, and smNPC-derived motor neurons using nickel-based isolation (NBI) or differential ultracentrifugation (UC). NBI protocol was performed as already described. Briefly, after a first centrifugation step at 2800 × g for 10 min, nickel beads were incubated for 30 min with serum-free media collected from cells in a ratio of 25 μl of beads per ml of medium. After a 2 min centrifugation at 600 g, particles were eluted from the beads by adding 1× elution buffer made of Solution A [16 mM ethylenediaminetetraacetic acid (EDTA), UltraPure, pH 8.0, Thermo Fisher] and Solution B (10 mM NaCl, 225 μM citric acid, Sigma–Aldrich) diluted five times in phosphate-buffered saline (PBS). After 15 min incubation at 28°C in a thermoshaker, the EVs were retrieved by 1-min centrifugation at 1800 × g and subjected to the following characterization. NBI was used to recover polydisperse EVs and include the RNA contribution from these for reverse proteomics experiments. The EV-RNA for reverse proteomics was pooled from three consecutive EV isolation procedures performed on a total of 30 T75 flasks (10 flasks each) of NSC34 cells grown until 80% confluence under standard conditions before washing with PBS and incubating with serum-free medium with glutamine and antibiotics. Differential UC was applied as an alternative EV isolation protocol to confirm the detection of hnRNPA2B1 protein. UC was performed by a SW 32 Ti swinging bucket rotor in an Optima XPN-100 ultracentrifuge (Beckman Coulter, Brea, CA, USA). The cell-conditioned serum-free media, after the first centrifugation step at 2800 × g for 10 min, was put in open-top Ultra-Clear centrifuge tubes (Beckman Coulter-344058) and subjected to 100 000 × g (100 K) UC for 70 min at 4°C under vacuum, with or without an additional step at 10 000 × g (10 K) to first sediment larger particles. Then the supernatant was removed, and the pellet was resuspended in 0.22 μm filtered PBS. Differential UC alone, consisting of 2800 × g for 10 min and 100 000 × g for 70 min, was applied for experiments reported in Fig. 5. […]
RNA from cells was extracted using TRI Reagent® (T9424, Sigma) following the manufacturer’s instructions. Thermo Fisher Nanodrop 2000 Spectrophotometer was used to assess the purity and quantity of extracted RNA. […] The elution was in 10–20 μl of RNase-free water and the RNA profiling and quantification was assessed by Agilent 2100 Bioanalyzer and RNA 6000 Pico Kit (5067-1513). Cell- and EV-RNAs were also analysed with DNF-472 HS RNA (15 nt) Kit (Agilent Technologies, Santa Clara, CA), according to the manufacturer. […] Results were analysed with Agilent ProSize data analysis software, that allows the analysis of RNA size, concentration and quality. […]

T1 sequence (P22626 whole entry): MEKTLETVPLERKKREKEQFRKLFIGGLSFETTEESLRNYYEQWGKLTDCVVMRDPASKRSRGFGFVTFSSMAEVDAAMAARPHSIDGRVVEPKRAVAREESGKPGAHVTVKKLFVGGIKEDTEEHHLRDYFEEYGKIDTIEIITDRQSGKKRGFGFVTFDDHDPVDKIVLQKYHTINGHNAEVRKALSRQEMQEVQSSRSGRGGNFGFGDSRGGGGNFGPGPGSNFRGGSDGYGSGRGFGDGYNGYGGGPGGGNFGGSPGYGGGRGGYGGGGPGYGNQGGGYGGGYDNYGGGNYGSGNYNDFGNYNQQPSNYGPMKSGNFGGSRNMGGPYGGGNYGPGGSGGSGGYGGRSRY

Take `O=C1C=C2CC3(O)COc4c(ccc(O)c4O)C3=C2C=C1O` (centres unmarked) [H, hematein]: the “interference with RNA 114 probe interaction” value in experiment [1] is “most effective inhibitors”. In experiment [2], the “vesicular miR-221, copy number normalized on Y3 RNA and DMSO” value was “vesicular depletion”.
